Values quoted from earlier work in patent US5681568A, “Device for delivery of substances and methods of use thereof” (Cambridge NeuroScience, Inc., priority 1994, dated 1997).

Experiments:
[1] = in vivo
[2] = tested on: hypoxic/ischemic brain injury; details: rat
[3] = tested on: experimental cerebral ischemia; details: after experimental cerebral ischemia, rabbit
[4] = presence of heparin
[5] = tested on: nerve regeneration; details: in vivo

CSCC[C@@H]1NC(=O)[C@H](CC(C)C)NC(=O)[C@H](CCCNC(=N)N)NC(=O)[C@H](CO)NC(=O)[C@@H]2CSSC[C@@H]3NC(=O)[C@H](CO)NC(=O)CNC(=O)[C@H]([C@@H](C)O)NC(=O)[C@H](CSSC[C@H](N)C(=O)N[C@@H](CCCCN)C(=O)NCC(=O)N[C@@H](CCCCN)C(=O)NCC(=O)N[C@@H](C)C(=O)N[C@@H](CCCCN)C(=O)N2)NC(=O)[C@H](CSSC[C@@H](C(N)=O)NC(=O)[C@H](CCCCN)NC(=O)CNC(=O)[C@H](CO)NC(=O)[C@H](CCCNC(=N)N)NC3=O)NC(=O)[C@H](CC(=O)O)NC(=O)[C@H](Cc2ccc(O)cc2)NC1=O [SNX111]
toxic side effects [1]: severe hypotension

IGF-1: insulin-like growth factors (IGFs)
effects in models of hypoxic/ischemic brain injury [2]: therapeutically relevant effects

TGFβ1: Transforming growth factor β1
effect on infarct size [3]: reduce infarct size
effects in models of hypoxic/ischemic brain injury [2]: therapeutically relevant effects

acidic FGF: member of the fibroblast growth factor (FGF) family known to associate with heparin
effect of heparin on the factor's activity [4]: can potentiate the factor's activity

bFGF: Basic fibroblast growth factor
effect on nerve regeneration [5]: therapeutic relevant effect on nerve regeneration
